Experimental data from the NIST ThermoML archive (doi:10.1016/j.fluid.2017.04.007).

Columns and labels:
[1] = Crystal; DTA
[2] = Molar enthalpy of transition or fusion; conditions: Crystal; DSC
[3] = xn = mol fraction of the nth substance listed; conditions: 101 kPa, Liquid, Vibrating tube method

CCCCCCCCCC(=O)O [decanoic acid]
Conditions | Molar enthalpy of transition or fusion [kcal/mol] | Normal melting temperature [°C]
[1] | – | 31.60
[2] | 6.57 | –

CCCCCCCCCCCC(=O)O [dodecanoic acid]
Conditions | Molar enthalpy of transition or fusion [kcal/mol] | Normal melting temperature [°C]
[1] | – | 44.33
[2] | 9.04 | –

CCCCCCCCCCCCCCCC(=O)O [hexadecanoic acid]
Conditions | Molar enthalpy of transition or fusion [kcal/mol] | Normal melting temperature [°C]
[1] | – | 63.69
[2] | 12.2 | –

CCCCCCCCCCCCCCCCCC(=O)O [octadecanoic acid]
Conditions | Molar enthalpy of transition or fusion [kcal/mol] | Normal melting temperature [°C]
[1] | – | 70.52
[2] | 14.7 | –

CCCCCCCCCCCCCC(=O)O [tetradecanoic acid]
Conditions | Molar enthalpy of transition or fusion [kcal/mol] | Normal melting temperature [°C]
[1] | – | 53.88
[2] | 9.87 | –

CC[N+](CC)(CC)CC.[Cl-] [tetraethylammonium chloride]
Conditions | Molar enthalpy of transition or fusion [kcal/mol] | Normal melting temperature [°C]
[1] | – | 253.63
[2] | 12.2 | –

CC[N+](CC)(CC)CC.[Cl-] [tetraethylammonium chloride] + O
mass density [kg/m3], [3]
Conditions | 298.15 K | 308.15 K | 318.15 K | 328.15 K | 338.15 K | 348.15 K | 358.15 K
x1 = 0.0173 | 1000.2 | 996.7 | 992.3 | – | – | – | –
x1 = 0.0403 | 1005.7 | 1001.1 | 996.5 | 990.9 | 982.8 | 971.4 | 953.1
x1 = 0.0727 | 1014.9 | 1009.5 | 1003.9 | 998.3 | 992.2 | 985.7 | 977.1
x1 = 0.1213 | 1027 | 1020.8 | 1014.4 | 1008 | 1001.5 | 995.1 | 988.4
x1 = 0.1994 | 1035.4 | 1029.1 | 1022.8 | 1016.4 | 1010 | 1003.4 | 997.2

C[N+](C)(C)C.[Cl-] [tetramethylammonium chloride]
Conditions | Normal melting temperature [°C]
[1] | 339.72

C[N+](C)(C)C.[Cl-] [tetramethylammonium chloride] + O
mass density [kg/m3], [3]
Conditions | 298.15 K | 308.15 K | 318.15 K | 328.15 K | 338.15 K | 348.15 K | 358.15 K
x1 = 0.026 | 1001.5 | 998.1 | – | – | – | – | –
x1 = 0.06 | 1005.7 | 1001.7 | 997.5 | 991.3 | 985.1 | 975.6 | 959.5
x1 = 0.1062 | 1012.8 | 1008.6 | 1004.1 | 999.5 | 993.1 | 986.6 | 977.1
x1 = 0.1731 | 1022.5 | 1018.1 | 1013.5 | 1008.9 | 1004 | 998.9 | 993
x1 = 0.2831 | 1034.1 | 1029.5 | 1025 | 1020.3 | 1015.7 | 1010.9 | 1006.1
